Reference: patent US20150374673A1, “Combination Therapy for the Treatment of Nosocomial Pneumonia” (priority 2013, published 2015)
Where “and” joins values, the source holds several entries; their conditions need not be identical. Identical values can stand only once.

How the values were obtained:
P. aeruginosa [1] = experiment: Neutropenic CD-1 mice with experimental pneumonia (lung infection), exposure response of ceftazidime q2h and avibactam q2h or q8h; format: in vivo, Pseudomonas aeruginosa; settings: for % fT > CT1 q2 / % fT > CT1 q8 / TDD AVI q2h / TDD AVI q8h / log TDD AVI q2h / log TDD AVI q8h: Dose CAZ 16 mg/kg q2h; for % fT > CT1 q2 / % fT > CT1 q8: CT 1 mg/L; for TDD AVI q2h / TDD AVI q8h / log TDD AVI q2h / log TDD AVI q8h: static effect; for factor by which daily dose for static effect was lower q2h than q8h: with ceftazidime q2h
Description: CD-1 neutropenic mice were infected with approx. 10^6 cfu in the lung by instillation through the nares under light anaesthesia. […] For avibactam the % time of the dosing interval above a virtual in vivo threshold concentration, CT, % fT>CT, were calculated (CT of 0.25, 1 and 4 mg/L).
Outbred female CD-1 mice (Charles River, Netherlands), 4 to 5 weeks old, weighing 20 to 25 g were used in the experiments. Granulocytopenia was induced by two doses of cyclophosphamide s.c. four days (150 mg/kg) and one day (100 mg/kg) before the infection experiment.
Neutropenic mice were infected with one P. aeruginosa strain per animal. 0.05 mL of bacterial suspension consisting of approximately 10^5-10^6 bacteria was inoculated intra-nasally with a syringe under light anaesthesia with isoflurane. […] All dosing regimens were performed in at least two animals. At t=0 h, 2 mice were humanely sacrificed to determine the initial inoculum just before starting treatment. All other animals were sacrificed at t=24 h unless the welfare of the animals indicated earlier termination was necessary, following animal welfare regulations. Lungs were taken and moved to a pre-cooled 10-mL plastic tube (Transport Tube, Omnilabo, NL) containing 2 mL phosphate buffered saline (PBS; NaCl 8.00 g/L, Na2HPO4*2 H2O 1.44 g/L, KH2PO4 0.26 g/L, pH 7.2-7.4). Subsequently lungs were grounded using an Ultra-Turrax (IKA Labortechnik, Germany). A tenfold dilution series was prepared and 3×10 μL plated (Chromagar, Biomerieux, NL) per dilution. The following day, colonies were counted and the number of cfu per lung calculated.
This regimen was chosen because of the sensitivity to changes in effects of avibactam. The amount of avibactam administered varied in frequency and dose. […] The drug ? effect was determined as the difference between the log10 cfu values at t=24 h and t=0 h (mean value of 2 mice) expressed as dcfu. Free drug concentrations were used in all calculations. […] For avibactam % fT>CT, the % time of the dosing interval above threshold concentration CT were calculated for CT of 0.25, 1 and 4 mg/L. The CT values were chosen based on the activity of avibactam in vitro, 4 mg/L being used in susceptibility testing, but lower concentrations also being active as determined in in vitro checkerboard studies.

E. faecalis = experiment: Checkerboard assay, mean FICI; format: cell-based
Description: All MIC determinations including those performed in the checkerboard assay were done in cation-adjusted Mueller-Hinton broth (purchased from Becton Dickinson, Oxford UK).
Initial MIC data were determined by microbroth dilution methods as recommended by CLSI (2012b). Checkerboards were made in accordance with the method given by Pillai et. al., ? Antimicrobial Combinations in Antibiotics, LABORATORY MEDICINE (Lorian Ed., 3rd Ed. (2003)) p. 365-440 as per standard microbroth dilution tests but with agents in combination. […] A final avibactam concentration of 4 mg/L was used throughout the study. Antibacterial agents were combined into microtitre plates using the Evolution III liquid handling system.
Checkerboard plates were inoculated and incubated in accordance with CLSI guidelines (2012b) at 35±2° C. in ambient air for 16-20 h. MICs were recorded the following day as the lowest concentration or combination of concentrations required to inhibit all visible growth. From the MIC data, FICIs were calculated for each checkerboard according to the method of Meletiadis et. al., Defining Fractional Inhibitory Concentration Index Cutoffs for Additive Interactions Based on Self-Drug Additive Combinations, Monte Carlo Simulation Analysis and in vitro-in vivo Correlation Data for Antifungal Drug Combinations Against Aspergillus fumigatus, AAC 54:602-09 (2010).
FICI=FICA+FICB=(CA/MICA)+(CB/MICB)
As each checkerboard gives a number of FICI values, an arithmetic mean is calculated from all values to give the mean FICI for two agents combined against one isolate. Mean FICIs were interpreted by the following criteria given by Odds (2003) which are now the accepted criteria by most journals: […]

P. aeruginosa [2] = experiment: MIC of the P. aeruginosa isolates used in the in vivo efficacy studies; format: cell-based; settings: Pseudomonas aeruginosa
[3] = q2h and q8h, strains 11 and 18, lung

SMILES: NC(=O)[C@@H]1CC[C@@H]2CN1C(=O)N2OS(=O)(=O)[O-].[Na+] [avibactam, [(2S,5R)-2-carbamoyl-7-oxo-1,6-diazabicyclo[3.2.1]octan-6-yl]hydrogen sulfate]
- efficacy by dosing frequency (P. aeruginosa [1]; avibactam q2h or q8h with ceftazidime q2h, lung): q2h regimen was more efficacious than the q8h regimen
- effect on static % fT>MIC of ceftazidime (P. aeruginosa [1]; lung infection, all strains): reduced
- % fT > CT1 q2, mean (P. aeruginosa [1]; mean of strains 18 and 11 (sd 2.7), lung infection, avibactam q2h): 21.6%
- % fT > CT1 q8, mean (P. aeruginosa [1]; mean of strains 18 and 11 (sd 3.4), lung infection, avibactam q8h): 18.5%
- overall mean % fT>CT 1 mg/L for static effect (P. aeruginosa [1]; [3]): 20.1%
- range of % fT>CT 1 mg/L for static effect (P. aeruginosa [1]; [3]): 16.1-23.5
- % fT > CT1 q2 (P. aeruginosa [1]; strain 11, lung infection, avibactam q2h): 19.7%
- % fT > CT1 q8 (P. aeruginosa [1]; strain 11, lung infection, avibactam q8h): 20.9%
- TDD AVI q2h (P. aeruginosa [1]; strain 11, lung infection): 45.65 mg/kg
- TDD AVI q8h (P. aeruginosa [1]; strain 11, lung infection): 463.29 mg/kg
- log TDD AVI q2h (P. aeruginosa [1]; strain 11, lung infection): 1.66 mg/kg
- log TDD AVI q8h (P. aeruginosa [1]; strain 11, lung infection): 2.67 mg/kg
- factor by which daily dose for static effect was lower q2h than q8h (P. aeruginosa [1]; strain 11, lung): 2.7
- % fT > CT1 q2 (P. aeruginosa [1]; strain 18, lung infection, avibactam q2h): 23.5%
- % fT > CT1 q8 (P. aeruginosa [1]; strain 18, lung infection, avibactam q8h): 16.1%
- TDD AVI q2h (P. aeruginosa [1]; strain 18, lung infection): 56.65 mg/kg
- TDD AVI q8h (P. aeruginosa [1]; strain 18, lung infection): 150.57 mg/kg
- log TDD AVI q2h (P. aeruginosa [1]; strain 18, lung infection): 1.75 mg/kg
- log TDD AVI q8h (P. aeruginosa [1]; strain 18, lung infection): 2.18 mg/kg
- factor by which daily dose for static effect was lower q2h than q8h (P. aeruginosa [1]; strain 18, lung): 10.1
- % fT>CT 1 mg/L estimates for stasis over 24 h (P. aeruginosa [1]; the other two of strains 7, 5, 19 and 1 (not 1 and 19), ceftazidime q2h, lung): 21.4% and 19.4%
- % fT>CT 1 mg/L estimates (P. aeruginosa [1]; two control strains, lung): 22.4% and 21.6%

SMILES: CC(C)(O/N=C(\C(=O)N[C@@H]1C(=O)N2C(C(=O)[O-])=C(C[n+]3ccccc3)CS[C@H]12)c1csc(N)n1)C(=O)O [ceftazidime, (6R,7R)-7-[[(2Z)-2-(2-amino-1,3-thiazol-4-yl)-2-(1-hydroxy-2-methyl-1-oxopropan-2-yl)oxyiminoacetyl]amino]-8-oxo-3-(pyridin-1-ium-1-ylmethyl)-5-thia-1-azabicyclo[4.2.0]oct-2-ene-2-carboxylate pentahydrate]
- Mean FICI (E. faecalis; with Lev, isolate 25 E. faecalis Basal MICs): 1.15
- Mean FICI (E. faecalis; with Lev, isolate 26 E. faecalis Basal MICs): 1.20
- Mean FICI (E. faecalis; with Lev, isolate 27 E. faecalis Basal MICs): 0.78
- Mean FICI (E. faecalis; with Lzd, isolate 25 E. faecalis Basal MICs): 1.72
- Mean FICI (E. faecalis; with Lzd, isolate 26 E. faecalis Basal MICs): 0.99
- Mean FICI (E. faecalis; with Lzd, isolate 27 E. faecalis Basal MICs): 1.64
- Mean FICI (E. faecalis; with Tig, isolate 25 E. faecalis Basal MICs): 1.19
- Mean FICI (E. faecalis; with Tig, isolate 26 E. faecalis Basal MICs): 0.73
- Mean FICI (E. faecalis; with Tig, isolate 27 E. faecalis Basal MICs): 1.16
- Mean FICI (E. faecalis; with Tob, isolate 25 E. faecalis Basal MICs): 0.84
- Mean FICI (E. faecalis; with Tob, isolate 26 E. faecalis Basal MICs): 0.74
- Mean FICI (E. faecalis; with Tob, isolate 27 E. faecalis Basal MICs): 0.99
- Mean FICI (E. faecalis; with Van, isolate 25 E. faecalis Basal MICs): 1.63
- Mean FICI (E. faecalis; with Van, isolate 26 E. faecalis Basal MICs): 1.18
- Mean FICI (E. faecalis; with Van, isolate 27 E. faecalis Basal MICs): 1.38
- MIC (P. aeruginosa [2]; P. aeruginosa PSA 1-25): 128 µg/mL
- MIC (P. aeruginosa [2]; P. aeruginosa PSA 1-29): 32 µg/mL
- MIC (P. aeruginosa [2]; P. aeruginosa PSA 2-69): 64 µg/mL
- MIC (P. aeruginosa [2]; P. aeruginosa PSA 3-9): > 128 µg/mL
- MIC (P. aeruginosa [2]; P. aeruginosa PSA 4-32): 32 µg/mL
- MIC (P. aeruginosa [2]; P. aeruginosa PSA 4-36): 64 µg/mL
- MIC (P. aeruginosa [2]; P. aeruginosa PSA 4-39): 32 µg/mL
- MIC (P. aeruginosa [2]; P. aeruginosa PSA 4-84): 64 µg/mL
- MIC (P. aeruginosa [2]; P. aeruginosa PSA 7-6): 128 µg/mL
- MIC (P. aeruginosa [2]; P. aeruginosa PSA 8-16): 64 µg/mL
- MIC (P. aeruginosa [2]; P. aeruginosa PSA 11-54): 32 µg/mL
- MIC (P. aeruginosa [2]; P. aeruginosa PSA 14-28): 128 µg/mL
- MIC (P. aeruginosa [2]; P. aeruginosa PSA 22): 64 µg/mL
- MIC (P. aeruginosa [2]; P. aeruginosa PSA 24-2): 32 µg/mL
- MIC (P. aeruginosa [2]; P. aeruginosa PSA 28-19): 128 µg/mL
- MIC (P. aeruginosa [2]; P. aeruginosa PSA 37-8): 64 µg/mL
- MIC (P. aeruginosa [2]; P. aeruginosa PSA 856): 8 µg/mL
- MIC (P. aeruginosa [2]; P. aeruginosa PSA 968): 32 µg/mL
- MIC (P. aeruginosa [2]; P. aeruginosa PSA 971): 16 µg/mL
- MIC (P. aeruginosa [2]; P. aeruginosa PSA 1382): 128 µg/mL
- MIC (P. aeruginosa [2]; P. aeruginosa PSA 1383): 64 µg/mL
- MIC (P. aeruginosa [2]; P. aeruginosa PSA 1384): 64 µg/mL
- MIC (P. aeruginosa [2]; P. aeruginosa PSA 1386): 128 µg/mL
- MIC (P. aeruginosa [2]; P. aeruginosa PSA 1387): 32 µg/mL
- MIC (P. aeruginosa [2]; P. aeruginosa PSA 1388): 128 µg/mL
- MIC (P. aeruginosa [2]; P. aeruginosa PSA 1389): 64 µg/mL
- MIC (P. aeruginosa [2]; P. aeruginosa PSA 1391): 128 µg/mL
- MIC (P. aeruginosa [2]; P. aeruginosa PSA 1394): 64 µg/mL
